The values that follow come from ChEMBL document CHEMBL1136462, “The effect of remote chirality on the antibacterial activity of indolinyl, tetrahydroquinolyl and dihydrobenzoxazinyl oxazolidinones” (Bioorg Med Chem Lett, 2003).

In brackets after ≈: the same amount, converted by molar mass.

Series [1] can be described thus: Oral bioavailability of compound (19.76 mg/kg) after po administration was determined in Sprague-Dawley rat. Format: ADME, organism-based. As to conditions: in vivo.
For series [2], the system named is Rattus norvegicus. The series is described as follows: Clearance (Cl) of compound (9.84 mg/kg) after iv administration was determined in Sprague-Dawley rat. As to conditions: in vivo. It is filed as ADME, organism-based.
Series [3] can be described thus: Maximum plasma concentration (Cmax) of compound (19.76 mg/kg) after po administration was determined Sprague-Dawley rat. Format: ADME, organism-based. Details: dose 19.76 mg/kg, route oral.
Series [4] in a line: Maximum plasma concentration (Cmax) of compound (9.84 mg/kg) after iv administration was determined Sprague-Dawley rat. Details: dose 9.84 mg/kg, route intravenous. Format: ADME, organism-based.
In series [5] the test system is Rattus norvegicus. Nature of the series: Steady state volume distribution (Vss) of compound(9.84 mg/kg) after iv administration was determined in Sprague-Dawley rat. Format: ADME, organism-based. As to conditions: in vivo.
A short description of series [6]: Tmax of compound (19.76 mg/kg) after po administration was determined in Sprague-Dawley rat. Format: ADME, organism-based. As to conditions: in vivo.
In series [7] the test system is Rattus norvegicus. Nature of the series: Half life of compound (9.84 mg/kg) after iv administration was determined in Sprague-Dawley rat. As to conditions: in vivo. It is filed as ADME, organism-based.
Series [8] in a line: Half life of compound (9.84 mg/kg) after po administration was determined in Sprague-Dawley rat. Format: ADME, organism-based. As to conditions: in vivo.
For another series, the system named is Enterococcus faecalis. The series is described as follows: In vitro antibacterial activity against vancomycin susceptible Enterococcus faecalis UC19217 (VSEF). Format: functional.
For the next series, the system named is Haemophilus influenzae. The series is described as follows: In vitro antibacterial activity against ampicillin resistant Haemophilus influenzae 30063 (AMPR b-lactamase+). It is filed as functional.
A further series deals with Moraxella catarrhalis. Nature of the series: In vitro antibacterial activity against Moraxella catarrhalis 30607 (b-lactamase+). It is filed as functional.
In series [9] the test system is Staphylococcus epidermidis. Nature of the series: In vitro antibacterial activity against methicillin resistant Staphylococcus epidermis US 12084 (MRSE). It is filed as functional.
The subject of series [10] is Staphylococcus aureus. The series is described as follows: In vitro antibacterial activity against methicillin susceptible Staphylococcus aureus UC19213 (MSSA); (SA1). Format: functional.
For series [11], the system named is Staphylococcus aureus. Nature of the series: In vitro antibacterial activity against Staphylococcus aureus UC12673 (SA2). It is filed as functional.
The next series relates to Streptococcus pneumoniae. Nature of the series: In vitro antibacterial activity against penicillin susceptible Streptococcus pneumoniae UC19912 (PSSP). Format: functional.
A short description of series [12]: Oral bioavailability of compound (20.73 mg/kg) after po administration was determined in Sprague-Dawley rat. It is filed as ADME, organism-based. As to conditions: in vivo.
Series [13] in a line: Clearance (Cl) of compound (9.92 mg/kg) after iv administration was determined in Sprague-Dawley rat. It is filed as ADME, organism-based. Particulars: in vivo.
Series [14] is described as follows: Maximum plasma concentration (Cmax) of compound (20.73 mg/kg) after po administration was determined Sprague-Dawley rat. It is filed as ADME, organism-based. Set-up: dose 20.73 mg/kg, route oral.
A short description of series [15]: Maximum plasma concentration (Cmax) of compound (9.92 mg/kg) after iv administration was determined Sprague-Dawley rat. Format: ADME, organism-based. Set-up: dose 9.92 mg/kg, route intravenous.
A short description of series [16]: Steady state volume distribution (Vss) of compound after iv administration was determined in Sprague-Dawley rat. It is filed as ADME, organism-based. Particulars: in vivo, read-out: Vss.
Series [17] is described as follows: Half life of compound (20.73 mg/kg) after po administration was determined in Sprague-Dawley rat. It is filed as ADME, organism-based. Particulars: in vivo.
Series [18] can be described thus: Tmax of compound (20.73 mg/kg) after po administration was determined in Sprague-Dawley rat. Particulars: in vivo. It is filed as ADME, organism-based.
Series [19] in a line: Half life of compound (9.92 mg/kg) after iv administration was determined in Sprague-Dawley rat. It is filed as ADME, organism-based. As to conditions: in vivo.
Series [20] deals with Mus musculus. The series is described as follows: In vivo efficacy of compound to protect the Staphylococcus aureus UC9213 infected mouse from death after po administration. Format: functional.
Series [21] can be described thus: Clearance (Cl) of compound (10 mg/kg) after iv administration was determined in Sprague-Dawley rat. It is filed as ADME, organism-based. Particulars: in vivo.
Series [22] in a line: Maximum plasma concentration (Cmax) of compound (25 mg/kg) after po administration was determined Sprague-Dawley rat. Format: ADME, organism-based. Set-up: dose 25 mg/kg, route oral.
Series [23] can be described thus: Tmax of compound (25 mg/kg) after po administration was determined in Sprague-Dawley rat. Format: ADME, organism-based. Particulars: in vivo.
The subject of series [24] is Mus musculus. The series is described as follows: In vivo efficacy of compound to protect the Staphylococcus aureus UC9213 infected mouse from death after sc administration. It is filed as functional.

As to `CC(=O)NC[C@H]1CN(c2ccc3c(c2)C[C@@H](C)N3C=O)C(=O)O1`, the bioavailability (as a rule, the share of a dose that reaches the circulation, judged against a reference dose that is usually intravenous) in series [1] came to 56%. Also, the CL with Rattus norvegicus [2] came out at 1.84 mL/min/kg. Further, the Cmax – broadly, the maximum level reached in the sampled fluid or tissue – in [3] turned out to be 7200 ng/mL; in [4], 16100 ng/mL. Also, the Vss – broadly, the apparent volume that relates the amount in the body to the concentration in plasma or blood – in the series with Rattus norvegicus [5] was 1.27 L/kg. For the same compound, in series [6], the Tmax (commonly the time from dosing to the highest level) was 30 min. In the series on Rattus norvegicus [7], this compound registered a T1/2 of 102 min. For the same compound, in series [8], the half-life (in general, how long it takes for the measured level to halve) is 48 min. Besides, the MIC with Enterococcus faecalis was 1 µg/mL (≈ 3.15 µM); with Haemophilus influenzae, 8 µg/mL (≈ 25.2 µM); with Moraxella catarrhalis, 4 µg/mL (≈ 12.6 µM); in [9], less than 0.5 µg/mL; against Staphylococcus aureus [10] it was 1 µg/mL (≈ 3.15 µM); with Staphylococcus aureus [11] it was 1 µg/mL (≈ 3.15 µM). This compound yielded an MIC against Streptococcus pneumoniae of less than 0.5 µg/mL.
For `CC(=O)NC[C@H]1CN(c2ccc3c(c2)OC[C@@H](C)N3C=O)C(=O)O1`, the MIC with Enterococcus faecalis is 4 µg/mL (≈ 12 µM); against Haemophilus influenzae, 64 µg/mL (≈ 192 µM); in the series on Moraxella catarrhalis it was 8 µg/mL (≈ 24 µM); in series [9], less than 1 µg/mL; in the series with Staphylococcus aureus [10], 4 µg/mL (≈ 12 µM); in the series on Staphylococcus aureus [11], 2 µg/mL (≈ 6 µM). In addition, in the series on Streptococcus pneumoniae, the MIC is less than 1 µg/mL.
In the case of `C/C(S)=N/C[C@H]1CN(c2ccc3c(c2)C[C@H](C)N3C=O)C(=O)O1`, the MIC against Enterococcus faecalis is 2 µg/mL (≈ 6 µM); against Haemophilus influenzae, 32 µg/mL (≈ 96 µM); in the series with Moraxella catarrhalis, 16 µg/mL (≈ 48 µM); in series [9], 1 µg/mL (≈ 3 µM); against Staphylococcus aureus [10] it was 2 µg/mL (≈ 6 µM); in the series on Staphylococcus aureus [11] it was 2 µg/mL (≈ 6 µM). The compound further had an MIC in the series on Streptococcus pneumoniae of less than 0.5 µg/mL.
`CC(=O)NC[C@H]1CN(c2ccc3c(c2)C[C@@H](C)N3C(=O)CO)C(=O)O1` showed a bioavailability in [12] of 55.4%. In addition, in [13], the clearance (in general, the rate of elimination divided by the concentration) was determined as 24 mL/min/kg. In addition, the Cmax in series [14] came to 3800 ng/mL; in series [15], 15100 ng/mL. In [16], the Vd was determined as 1.28 L/kg. Moreover, the half-life in [17] was 168 min; in series [19], 108 min. In series [18], the Tmax came out at 30 min. Moreover, the MIC with Enterococcus faecalis was 2 µg/mL (≈ 5.76 µM); in the series with Haemophilus influenzae it was 8 µg/mL (≈ 23 µM); in the series with Moraxella catarrhalis, 8 µg/mL (≈ 23 µM); in series [9], 0.5 µg/mL (≈ 1.44 µM); with Staphylococcus aureus [10], 4 µg/mL (≈ 11.5 µM); against Staphylococcus aureus [11] it was 2 µg/mL (≈ 5.76 µM). In the series on Streptococcus pneumoniae, this compound displayed an MIC of 0.5 µg/mL (≈ 1.44 µM). In the series with Mus musculus [20], it took a dose of 1.8 mg/kg to reach the 50% effect level (ED50).
Consider `CC(=O)NC[C@H]1CN(c2ccc3c(c2)CC[C@H](C)N3C=O)C(=O)O1`, for which the MIC in the series on Enterococcus faecalis is 8 µg/mL (≈ 24.1 µM); with Haemophilus influenzae it was 64 µg/mL (≈ 193 µM); in the series with Moraxella catarrhalis it was 16 µg/mL (≈ 48.3 µM); in series [9], less than 2 µg/mL; against Staphylococcus aureus [10] it was 8 µg/mL (≈ 24.1 µM); with Staphylococcus aureus [11], 4 µg/mL (≈ 12.1 µM). Besides, in the series with Streptococcus pneumoniae, the MIC was less than 2 µg/mL.
With `C/C(S)=N/C[C@H]1CN(c2ccc3c(c2)C[C@@H](C)N3C(=O)CO)C(=O)O1`, the MIC was less than 0.5 µg/mL in the series with Enterococcus faecalis; 8 µg/mL (≈ 22 µM) in the series on Haemophilus influenzae; 2 µg/mL (≈ 5.5 µM) with Moraxella catarrhalis; less than 0.5 µg/mL in [9]; less than 0.5 µg/mL in the series with Staphylococcus aureus [10]; less than 0.5 µg/mL against Staphylococcus aureus [11]. The MIC in the series with Streptococcus pneumoniae was less than 0.5 µg/mL.
As to `C/C(S)=N/C[C@H]1CN(c2ccc3c(c2)CC[C@H](C)N3C=O)C(=O)O1`, the MIC in the series on Enterococcus faecalis is 2 µg/mL (≈ 5.76 µM); against Haemophilus influenzae, 16 µg/mL (≈ 46.1 µM); against Moraxella catarrhalis, 2 µg/mL (≈ 5.76 µM); in series [9], less than 0.5 µg/mL; in the series on Staphylococcus aureus [10] it was 1 µg/mL (≈ 2.88 µM); in the series with Staphylococcus aureus [11], 1 µg/mL (≈ 2.88 µM). In the series with Streptococcus pneumoniae, the MIC was less than 0.5 µg/mL.
Regarding `C/C(S)=N/C[C@H]1CN(c2ccc3c(c2)CC[C@@H](C)N3C=O)C(=O)O1`, the MIC was less than 0.5 µg/mL in the series on Enterococcus faecalis; 4 µg/mL (≈ 11.5 µM) against Haemophilus influenzae; 1 µg/mL (≈ 2.88 µM) with Moraxella catarrhalis; less than 0.5 µg/mL in series [9]; less than 0.5 µg/mL with Staphylococcus aureus [10]; less than 0.5 µg/mL against Staphylococcus aureus [11]. The same compound displayed an MIC in the series with Streptococcus pneumoniae of less than 0.5 µg/mL.
The compound `CC(=O)NC[C@H]1CN(c2ccc(N3CCOCC3)c(F)c2)C(=O)O1` [LINEZOLID] came in with a clearance in series [21] of 10.5 mL/min/kg. In [22], this compound returned a Cmax of 15800 ng/mL. Moreover, the Tmax in series [23] was 18 min. The MIC was 16 µg/mL (≈ 47.4 µM) in the series on Haemophilus influenzae, 8 µg/mL (≈ 23.7 µM) against Moraxella catarrhalis, less than 1 µg/mL in [9] and less than 0.5 µg/mL with Streptococcus pneumoniae. Moreover, in the series with Mus musculus [24], the 50% effect level (ED50) was put at a dose of 5.6 mg/kg.
